The source of these data is article PMC4750701, “Role of Mitochondrial RNA Polymerase in the Toxicity of Nucleotide Inhibitors of Hepatitis C Virus” (Antimicrobial Agents and Chemotherapy, 2016).

Data set [1] can be described thus: Cytotoxicity in primary human hepatocytes, 5 days. Conditions: human, primary human hepatocytes.
The nature of data set [2]: Cytotoxicity in MT-4 T-cells, 5-day treatment. The settings on record: human, MT-4 cells.
Protocol: Primary human hepatocytes were from Bioreclamation IVT (Westbury, NY) or Life Technologies (Carlsbad, CA).
All cells were cultured at 37°C in a 5% CO2 incubator with 90% humidity unless noted otherwise. […] All cells were treated with the various compounds for 5 days, except for human erythroid and myeloid progenitors, which were treated for 14 days. After the incubation period, cell viability was measured by the addition of CellTiter Glo viability reagents (Promega, Madison, WI). The luminescence signal was quantified on an Envision luminescence plate reader (PerkinElmer, Waltham, MA) after incubation of the reagents and cells for 10 min at room temperature. […] CC50 values were calculated as the average of the results of three or four independent experiments.
Data set [3] concerns the target T1, RNA PolIII (Homo sapiens, UniProt O14802+Q9NW08).
T1 construct: complexes were isolated from rat NSN1 cells and HeLa cells, respectively; made in house; host or cells: HeLa cells expressing a FLAG-tagged Pol III subunit
The experiment in a line: RNA PolIII inhibition assay. In kind it is biochemical. The settings on record: competing NTP 100 μM CTP and GTP, 500 μM ATP; read-out: Mean IC50 ± SD for RNA PolIII. The source says: Human DNA polymerase alpha, isolated from HeLa cell extracts, was from CHIMERx (Madison, WI). Recombinant human DNA polymerase beta, expressed in E. coli, was a gift from Zucai Suo at The Ohio State University. Recombinant human DNA polymerase gamma (including both the large subunit and the small subunit) was cloned, expressed, and purified from insect cells by Gilead Sciences (Foster City, CA) ([13]). RNA PolII was purchased as part of the HeLaScribe nuclear extract in vitro transcription system kit from Promega (Madison, WI). The recombinant human PolRMT and the transcription factors mitochondrial transcription factor A (mtTFA) and B2 (mtTFB2) were purchased from Enzymax (Lexington, KY). FLAG epitope-tagged RNA PolI and PolIII complexes were isolated from rat NSN1 cells and HeLa cells, respectively ([17], [18]). The inhibition of DNA polymerases alpha, beta, and gamma, PolRMT, and PolII and the rate of single-nucleotide incorporation by PolRMT have been described previously in detail ([12], [13], [19]). Inhibition of RNA PolI and PolIII was studied using published methods ([20], [21]). All concentrations were final unless noted otherwise. For the RNA PolI inhibition assay, a reaction mixture containing 50 mM HEPES (pH 7.9), 20% glycerol, 100 mM KCl, 1 mM dithiothreitol (DTT), 50 μg/ml calf thymus DNA, 4 mM MgCl2, 5 or 80 μM UTP (0.25 μl of [5,6-^3H]UTP, >25 Ci/mmol; PerkinElmer), 1 mM noncompeting NTP, competing NTP (5 μM for GTP, CTP, and UTP and 25 μM for ATP), and various concentrations (0 to 500 μM) of NTP analogs was preincubated at 30°C for 5 min. […] After incubation at 30°C for 20 min to 1 h, the reactions were terminated by pipetting the mixtures onto DEAE-cellulose discs (DE81; Whatman), and the products analyzed as described previously ([20], [21]).
The RNA PolIII inhibition assay was conducted in a similar manner, except that the concentrations of the competing NTP were modified to 100 μM for CTP and GTP and 500 μM for ATP to compensate for the low assay signal at lower NTP concentrations.

In data set [4] the test system is mitochondrial spare respiratory capacity in PC-3 cells. The experiment in a line: Oxygen consumption rate / spare respiratory capacity in PC-3 cells. The settings on record: PC-3 cells, 3-day treatments.
Protocol: Mitochondrial respiration was monitored by measuring the rate of oxygen consumption (OCR) of PC-3 cells after 3-day treatments with the compounds, using a Seahorse extracellular flux analyzer (XF^e-96) based on published protocols ([22][–][24]). The optimal cell seeding was determined by measuring the basal OCR of PC-3 cells that were seeded at different densities of 2.5 × 10^3, 5 × 10^3, 7.5 × 10^3, and 10 × 10^3 cells/well in XF 96-well plates (Seahorse Bioscience, North Billerica, MA) and incubated with 0.5% dimethyl sulfoxide (DMSO) for 3 days. […] Each reagent in the Mito Stress test kit (Seahorse Biosciences), i.e., ATP synthase inhibitor oligomycin, mitochondrial uncoupler carbonyl cyanide-4-(trifluoromethoxy)phenylhydrazone (FCCP), and a fixed-ratio mixture of the mitochondrial complex I (NADH dehydrogenase) inhibitor rotenone and the complex III (CoQH2-cytochrome c reductase) inhibitor antimycin A, was titrated. The lowest concentration that reached the maximal effect was chosen for each reagent. The OCR signals were normalized by cell numbers using DNA content determined by Hoechst's stain as described below.
PC-3 cells were seeded at a density of 5 × 10^3 cells/well in XF 96-well plates and incubated with the compounds for 3 days. On the day of the assay, the cell medium was replaced with XF assay medium (pH 7.4) containing 10 mM glucose and 1 mM freshly prepared pyruvate. Mitochondrial respiration was monitored by measuring OCR on a Seahorse extracellular flux analyzer (XF^e-96). All concentrations listed are the final concentration after mixing unless noted otherwise. […] Spare respiratory capacity was obtained by subtracting the rate of basal respiration from the rate of maximal respiration.
The cells were lysed by freezing at −80°C for >2 h. […] In parallel, another set of cells was treated with the compounds for 3 days and the ATP levels were measured using CellTiter Glo viability reagents (Promega, Madison, WI).
Data set [5] relates to mitochondrial DNA-encoded cytochrome c oxidase (COX-1). The experiment in a line: Mitochondrial protein synthesis assay (COX-1, MitoBiogenesis in-cell ELISA) in PC-3 cells. The format is cell-based, human. Conditions: PC-3 cells; for selectivity of effect on COX-1 versus SDH-A and ATP levels: 5-day treatments. Put shortly: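 PC-3 cells were exposed to compound for 5 days. Protein levels of nuclear-encoded SDH-A and mitochondrial-encoded COX-1 were then quantified by in-cell ELISA (quantitative immunocytochemistry).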
(In an ELISA, binding on a coated surface is turned into a signal by an enzyme label.)

A short description of data set [6]: Cytotoxicity in primary rat neonatal cardiomyocytes, 5 days. The format is cell-based. Conditions: Sprague Dawley, 5-day treatment, read-out: CC50 (mean ± standard deviation) in primary rat cardiomyocytes.
Data set [7] concerns Quiescent PBMCs. Further details: method as in PMID 24419349. The settings on record: 5 days; read-out: Mean CC50 ± SD in PBMCs Quiescent; cited from earlier work.
Data set [8] in a line: Chronic toxicology studies in dogs. The format is in vivo. The settings on record: up to 39 weeks.
For data set [9], the system named is human myeloid progenitors (bone marrow cells). The settings on record: read-out: Mean CC50 ± SD in Bone marrow cells Myeloid; 14 days; cited from earlier work.
Data set [10] deals with Primary human hepatocytes. Further details: method as in PMID 24419349. Conditions: 5 days, read-out: Mean CC50 ± SD in Hepatic cells (primary); cited from earlier work.
The subject of data set [11] is human erythroid progenitors (bone marrow cells). The settings on record: read-out: Mean CC50 ± SD in Bone marrow cells Erythroid; 14 days; cited from earlier work.

As to `C[C@@]1(O)[C@H](O)[C@@H](CO)O[C@H]1n1ccc(N)nc1=O` [2′CMeC, 2′-C-methyl (2′CMe) cytidine], the figures for the CC50 at 5 days in data set [1] and in data set [2] were > 100 µM and 19 ± 6 µM, respectively.
As to `C[C@@]1(O)[C@H](O)[C@@H](COP(=O)(O)OP(=O)(O)OP(=O)(O)O)O[C@H]1n1cnc2c(=O)[nH]c(N)nc21` [2′CMeGTP], the IC50 (usually the concentration needed to halve the response being measured) in data set [3] was > 500 µM.
For `[N-]=[N+]=N[C@]1(CO)O[C@@H](n2ccc(N)nc2=O)[C@H](O)[C@@H]1O` [4′-AzidoC, 4′-azido cytidine], in data set [4], the “selectivity of effect on spare respiratory capacity versus DNA and ATP levels” value is given as “selective inhibition of mitochondrial respiration”. In addition, the CC50 at 5 days in data set [1] and in data set [2] was > 100 µM each time. The “selectivity of effect on COX-1 versus SDH-A and ATP levels” value in data set [5] is reported as “selective inhibition of COX-1 synthesis”.
In the case of `COc1nc(N)nc2c1ncn2[C@@H]1O[C@H](COP(=O)(N[C@@H](C)C(=O)OCC(C)(C)C)Oc2cccc3ccccc23)[C@@H](O)[C@@]1(C)O` (stereo partly shown) [BMS-986094], the “selectivity of effect on spare respiratory capacity versus DNA and ATP levels” value in data set [4] is recorded as “selective inhibition of mitochondrial respiration”. Further, the CC50 at 5 days in data set [6] turned out to be 0.68 ± 0.32 µM. The “potentiation of mitochondrial and cellular toxicity by coincubation with RBV” value in data set [5] (5-day treatment, RBV 10 μM) was 3- to 4 fold. Moreover, the “selectivity of effect on COX-1 versus SDH-A and ATP levels” value in [5] is reported as “selective inhibition of COX-1 synthesis”.
`CC(C)OC(=O)[C@H](C)N[P@](=O)(OC[C@H]1O[C@@](C#N)(c2ccc3c(N)ncnn23)[C@](C)(O)[C@@H]1OC(=O)C(C)C)Oc1ccccc1` [GS-6620]: the CC50 in [7] is > 100 µM; in data set [9], 3.1 ± 2.6 µM; in data set [10], > 100 µM; in [11], 15 ± 7 µM. Further, in [8], the “effects during chronic toxicology studies” value is “did not show”.
On to `CCOc1nc(N)nc2c1ncn2[C@@H]1O[C@@H]2COP(=O)(OC(C)C)O[C@H]2[C@@]1(C)F` (stereo partly shown) [PSI-938], for which the CC50 at 5 days in data set [1] and in [2] was > 100 µM each time.
Turning to `C[C@@]1(F)[C@H](O)[C@@H](CO)O[C@H]1n1ccc(N)nc1=O` [PSI-6130], the CC50 at 5 days in [1] and in [2] was > 100 µM each time.
Consider `CC(C)OC(=O)[C@H](C)N[P@](=O)(OC[C@H]1O[C@@H](n2ccc(=O)[nH]c2=O)[C@](C)(F)[C@@H]1O)Oc1ccccc1` [Sofosbuvir], for which the CC50 in [9] and in data set [11] was > 100 µM each time.
